These results are taken from patent US20160122268A1, “PROCESS FOR SIMULTANEOUS EXTRACTION AND SEPARATION OF ESTERIFIED AND UNESTERIFIED MONOHYDROXYCAROTENOIDS” (UNIVERSITY OF MARYLAND, COLLEGE PARK, priority 2013, published 2016).

This data set in a line: Solubility in hydrocarbon solvents (pentane or hexane), observed in Soxhlet extraction. In kind it is physicochemical. To be noted: boiling pentane or hexane. From the text: In an alternative process, Soxhlet extraction of mono- and dihydroxycarotenoids can also be carried out to separate these carotenoids. As mentioned earlier, esterified forms of lutein and zeaxanthin are well solubilized in hydrocarbon solvents such as n-hexane and n-pentane, whereas their unesterified parent compounds, […], show a remarkable difference in their solubility behavior and remain insoluble. In fact, […] are considerably more soluble in n-pentane or n-hexane than lutein and zeaxanthin.
Similarly, a mixture of zeaxanthin and β-cryptoxanthin can be separated by Soxhlet extraction with n-pentane or n-hexane due to their differential solubility in hydrocarbon solvents.
100 mg of 1:1 mixture of (3R)-β-cryptoxanthin (13) and (3R,3′R)-zeaxanthin (5) was subjected to Soxhlet extraction and these unesterified carotenoids were extracted with boiling pentane (b.p.=36° C.) or hexane (b.p.=69° C.). […] After 4 hours, the composition of the extract was: (3R)-β-cryptoxanthin (13) (85%) and (3R,3′R)-zeaxanthin (5) (15%). In a subsequent Soxhlet extraction with pentane or hexane, (3R)-β-cryptoxanthin (13) was obtained in 98% purity.

The structures appear in SMILES notation.

With `CC1=C(/C=C/C(C)=C/C=C/C(C)=C/C=C/C=C(C)/C=C/C=C(C)/C=C/C2=C(C)C[C@@H](O)CC2(C)C)C(C)(C)CCC1` [compound 13, (3R)-β-cryptoxanthin], the “solubility in hydrocarbon solvents” value is recorded as “significantly better solubility”.

Regarding `CC1=C(/C=C/C(C)=C/C=C/C(C)=C/C=C/C=C(C)/C=C/C=C(C)/C=C/C2=C(C)C[C@@H](O)CC2(C)C)C(C)(C)C[C@H](O)C1` [compound 5, (3R,3′R)-zeaxanthin], the “solubility in hydrocarbon solvents” value is on record as “only sparingly soluble”.

As for `CC(C=CC=C(C)C=CC1=C(C)CC(O)CC1(C)C)=CC=CC=C(C)C=CC=C(C)C=CC1C(C)=CCCC1(C)C` [compound 9, (3R,6′R)-α-cryptoxanthin], the “solubility in hydrocarbon solvents” value is on record as “much greater solubility than lutein”.
